Test system: yeast genes (level of expressed mRNA)
Assay: DNA chip analysis of expressed mRNA of yeast genes after 2 h culture with a toxic chemical substance
Type: cell-based, Saccharomyces cerevisiae S288C
In short: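 S. cerevisiae S288C in YPD at 25 °C was exposed at log phase for 2 h to a growth-inhibiting, non-lethal concentration of the chemical. Poly(A) mRNA was reverse-transcribed with Cy3- or Cy5-dUTP and hybridized to a whole-genome yeast DNA chip (65 °C, >12 h). Values are fluorescence ratios versus untreated cells.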

Substance: CdCl2 [(2)]
- The level of expressed mRNA in the presence of chemical substance/ (yeast gene YKL086W, ratio to control without chemical): 1.1
- The level of expressed mRNA in the presence of chemical substance/The level of expressed mRNA in the absence of chemical substance (yeast gene YKL096W): 0.6
- The level of expressed mRNA in the presence of chemical substance/ (yeast gene YKL151C, ratio to control without chemical substance, 2 h culture): 3.1
- The level of expressed mRNA in the presence of chemical substance/ (yeast gene YKL153W, ratio to control without chemical substance, 2 h culture): 1.4
- The level of expressed mRNA in the presence of chemical substance/The level of expressed mRNA in the absence of chemical substance (yeast gene YKL165C): 2.0
- The level of expressed mRNA in the presence of chemical substance/The level of expressed mRNA in the absence of chemical substance (yeast gene YKL193C): 0.8
- The level of expressed mRNA in the presence of chemical substance/ (yeast gene YKL195W, ratio to control without chemical substance, 2 h culture): 0.5
- The level of expressed mRNA in the presence of chemical substance/in the absence of chemical substance (yeast gene YKR009C): 1.2
- The level of expressed mRNA in the presence of chemical substance/ (yeast gene YKR091W, ratio to control without chemical): 2.3
- The level of expressed mRNA in the presence of chemical substance/ (yeast gene YLR054C, ratio to control without chemical substance, 2 h culture): 1.5
- The level of expressed mRNA in the presence of chemical substance/The level of expressed mRNA in the absence of chemical substance (yeast gene YLR120C): 1.9
- The level of expressed mRNA in the presence of chemical substance/The level of expressed mRNA in the absence of chemical substance (yeast gene YLR136C): 9.0
- The level of expressed mRNA in the presence of chemical substance/ (yeast gene YLR149C, ratio to control without chemical substance, 2 h culture): 1.9
- The level of expressed mRNA in the presence of chemical substance/ (yeast gene YLR152C, ratio to control without chemical substance, 2 h culture): 1.3
- The level of expressed mRNA in the presence of chemical substance/The level of expressed mRNA in the absence of chemical substance (yeast gene YLR178C): 6.9
- The level of expressed mRNA in the presence of chemical substance/ (yeast gene YLR194C, ratio to control without chemical): 2.2
- The level of expressed mRNA in the presence of chemical substance/The level of expressed mRNA in the absence of chemical substance (yeast gene YLR250W): 1.0
- The level of expressed mRNA in the presence of chemical substance/ (yeast gene YLR324W, ratio to control without chemical substance, 2 h culture): 1.2
- The level of expressed mRNA in the presence of chemical substance/The level of expressed mRNA in the absence of chemical substance (yeast gene YLR327C): 3.3
- The level of expressed mRNA in the presence of chemical substance/ (yeast gene YLR350W, ratio to control without chemical substance, 2 h culture): 1.9
- The level of expressed mRNA in the presence of chemical substance/in the absence of chemical substance (yeast gene YLR351C): 1.4
- The level of expressed mRNA in the presence of chemical substance/The level of expressed mRNA in the absence of chemical substance (yeast gene YLR356W): 2.9
- The level of expressed mRNA in the presence of chemical substance/The level of expressed mRNA in the absence of chemical substance (yeast gene YLR362W): 1.2
- The level of expressed mRNA in the presence of chemical substance/in the absence of chemical substance (yeast gene YLR375W): 1.5
- The level of expressed mRNA in the presence of chemical substance/ (yeast gene YLR387C, ratio to control without chemical substance, 2 h culture): 1.6
- The level of expressed mRNA in the presence of chemical substance/The level of expressed mRNA in the absence of chemical substance (yeast gene YLR391W): 0.7
- The level of expressed mRNA in the presence of chemical substance/The level of expressed mRNA in the absence of chemical substance (yeast gene YLR429W): 1.0
- The level of expressed mRNA in the presence of chemical substance/ (yeast gene YLR460C, ratio to control without chemical substance, 2 h culture): 2.1
- The level of expressed mRNA in the presence of chemical substance/ (yeast gene YML117W, ratio to control without chemical substance, 2 h culture): 2.2
- The level of expressed mRNA in the presence of chemical substance/The level of expressed mRNA in the absence of chemical substance (yeast gene YMR004W): 0.9
- The level of expressed mRNA in the presence of chemical substance/ (yeast gene YMR009W, ratio to control without chemical substance, 2 h culture): 1.9
- The level of expressed mRNA in the presence of chemical substance/ (yeast gene YMR067C, ratio to control without chemical substance, 2 h culture): 0.9
- The level of expressed mRNA in the presence of chemical substance/ (yeast gene YMR090W, ratio to control without chemical substance, 2 h culture): 9.5
- The level of expressed mRNA in the presence of chemical substance/The level of expressed mRNA in the absence of chemical substance (yeast gene YMR094W): 0.5
- The level of expressed mRNA in the presence of chemical substance/ (yeast gene YMR095C, ratio to control without chemical): 2.0
- The level of expressed mRNA in the presence of chemical substance/ (yeast gene YMR097C, ratio to control without chemical substance, 2 h culture): 1.0
- The level of expressed mRNA in the presence of chemical substance/ (yeast gene YMR102C, ratio to control without chemical substance, 2 h culture): 2.9
- The level of expressed mRNA in the presence of chemical substance/The level of expressed mRNA in the absence of chemical substance (yeast gene YMR104C): 14.3
- The level of expressed mRNA in the presence of chemical substance/ (yeast gene YMR107W, ratio to control without chemical substance, 2 h culture): 3.9
- The level of expressed mRNA in the presence of chemical substance/ (yeast gene YMR180C, ratio to control without chemical substance, 2 h culture): 0.9
- The level of expressed mRNA in the presence of chemical substance/ (yeast gene YMR184W, ratio to control without chemical substance, 2 h culture): 5.4
- The level of expressed mRNA in the presence of chemical substance/ (yeast gene YMR191W, ratio to control without chemical substance, 2 h culture): 2.4
- The level of expressed mRNA in the presence of chemical substance/The level of expressed mRNA in the absence of chemical substance (yeast gene YMR219W): 1.1
- The level of expressed mRNA in the presence of chemical substance/The level of expressed mRNA in the absence of chemical substance (yeast gene YMR226C): 1.8
- The level of expressed mRNA in the presence of chemical substance/in the absence of chemical substance (yeast gene YMR267W): 1.8
- The level of expressed mRNA in the presence of chemical substance/The level of expressed mRNA in the absence of chemical substance (yeast gene YMR275C): 0.7
- The level of expressed mRNA in the presence of chemical substance/The level of expressed mRNA in the absence of chemical substance (yeast gene YMR276W): 1.4
- The level of expressed mRNA in the presence of chemical substance/in the absence of chemical substance (yeast gene YMR278W): 1.7
- The level of expressed mRNA in the presence of chemical substance/in the absence of chemical substance (yeast gene YMR293C): 1.5
- The level of expressed mRNA in the presence of chemical substance/ (yeast gene YMR295C, ratio to control without chemical substance, 2 h culture): 1.0
- The level of expressed mRNA in the presence of chemical substance/The level of expressed mRNA in the absence of chemical substance (yeast gene YMR314W): 1.2
- The level of expressed mRNA in the presence of chemical substance/ (yeast gene YMR316W, ratio to control without chemical substance, 2 h culture): 2.9
- The level of expressed mRNA in the presence of chemical substance/The level of expressed mRNA in the absence of chemical substance (yeast gene YNL006W): 2.1
- The level of expressed mRNA in the presence of chemical substance/The level of expressed mRNA in the absence of chemical substance (yeast gene YNL007C): 2.4
- The level of expressed mRNA in the presence of chemical substance/ (yeast gene YNL044W, ratio to control without chemical substance, 2 h culture): 0.9

Reference: patent US20050112573A1, “Method of detecting toxic substance” (priority 2001, published 2005)
